For ten compounds, IC50 results are on record in patent publication US20250154127A1, “BICYCLIC HETEROARYL COMPOUNDS AND USES THEREOF” (ETERN BIOPHARMA (SHANGHAI) CO., LTD., priority 2022, published 2025).

In test [1] the test system is MSTO-211H cells. Description: Proliferation Assay (CellTiter-Glo Luminescent Cell Viability Assay). Format: cell-based. The conditions noted are these: Homo sapiens, 96 hours treatment. The method in brief: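 MSTO-211H cells, 1,500/well in RPMI 1640 with 10% FBS, plated overnight, then treated 96 h with 9-point 3-fold compound series in duplicate (DMSO below 0.5%). Viability by CellTiter-Glo luminescence; inhibition relative to DMSO wells, IC50 by four-parameter fit.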
A general note: In ATP-based viability assays light output follows the ATP content of the culture.

Test [2] concerns the target TEAD1(210-426) binding to YAP(50-100) (Homo sapiens, UniProt P28347). Description: TR-FRET Assay for TEAD1(210-426) Binding to YAP(50-100). Conditions: His-TEAD 10 nM, YAP-Biotin peptide 50 nM. The method in brief: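 10 nM His-TEAD1 preincubated 30 min at room temperature with compound (3-fold dilutions, 12 points, 1% DMSO), then 50 nM biotin-YAP peptide added.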

Sequence of TEAD1(210-426) binding to YAP(50-100) (P28347 209-426): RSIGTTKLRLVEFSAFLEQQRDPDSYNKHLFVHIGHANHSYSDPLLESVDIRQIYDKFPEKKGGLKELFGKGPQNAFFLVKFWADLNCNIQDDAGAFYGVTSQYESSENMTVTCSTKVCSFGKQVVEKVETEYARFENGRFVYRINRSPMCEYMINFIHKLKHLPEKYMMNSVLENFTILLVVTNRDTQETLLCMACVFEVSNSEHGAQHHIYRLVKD

Usually IC50 stands for the concentration needed to halve the response being measured. Lower therefore signals higher potency. Consider `CNc1nccc(Cn2ccc(-c3nn(-c4ccc(C(F)(F)F)cc4)c4c(F)cccc34)cc2=O)n1` [Compound 128, 4-(7-fluoro-1-(4-(trifluoromethyl)phenyl)-1H-indazol-3-yl)-1-((2-(methylamino)pyrimidin-4-yl)methyl)pyridin-2(1H)-one], for which the IC50 in test [1] was not above 1 µM; in test [2], not above 0.1 µM.

As to `CNc1ccnc(Cn2ccc(-c3nn(-c4ccc(C(F)(F)F)cc4)c4c(F)cccc34)cc2=O)n1` [Compound 129, 4-(7-fluoro-1-(4-(trifluoromethyl)phenyl)-1H-indazol-3-yl)-1-((4-(methylamino)pyrimidin-2-yl)methyl)pyridin-2(1H)-one], the results for the 50% inhibitory concentration (IC50) in test [1] and in test [2] were not above 1 µM and not above 0.1 µM, respectively.

For the compound `CNc1nccc([C@@H](C)n2ccc(-c3nn(-c4ccc(C(F)(F)F)cc4)c4ncccc34)cc2=O)n1` [Compound 130, (R)-1-(1-(2-(methylamino)pyrimidin-4-yl)ethyl)-4-(1-(4-(trifluoromethyl)phenyl)-1H-pyrazolo[3,4-b]pyridin-3-yl)pyridin-2(1H)-one], the concentration for half-maximal inhibition (IC50) in test [1] was not above 1 µM; in test [2], 0.1 to 1 µM.

For `CNc1nccc([C@H](C)n2ccc(-c3nn(-c4ccc(C(F)(F)F)cc4)c4ncccc34)cc2=O)n1` [Compound 131, (S)-1-(1-(2-(methylamino)pyrimidin-4-yl)ethyl)-4-(1-(4-(trifluoromethyl)phenyl)-1H-pyrazolo[3,4-b]pyridin-3-yl)pyridin-2(1H)-one], the IC50 in test [1] was not above 1 µM; in test [2], not above 0.1 µM.

In the case of `O=c1cc(-c2nc(-c3ccc(C(F)(F)F)cc3)n3ccccc23)ccn1Cc1ccnc(OCCO)n1` [Compound 132, 1-((2-(2-hydroxyethoxy)pyrimidin-4-yl)methyl)-4-(3-(4-(trifluoromethyl)phenyl)imidazo[1,5-a]pyridin-1-yl)pyridin-2(1H)-one], the values for the 50% inhibitory concentration (IC50) in test [1] and in test [2] were not above 1 µM and not above 0.1 µM, respectively.

In the case of `O=c1cc(-c2nn(-c3ccc(C(F)(F)F)cc3)c3c(F)cccc23)ccn1Cc1ccnc(OCCO)n1` [Compound 133, 4-(7-fluoro-1-(4-(trifluoromethyl)phenyl)-1H-indazol-3-yl)-1-((2-(2-hydroxyethoxy)pyrimidin-4-yl)methyl)pyridin-2(1H)-one], the IC50 in test [1] was not above 1 µM; in test [2] it was not above 0.1 µM.

For the compound `COCCOc1nccc(Cn2ccc(-c3nn(-c4ccc(C(F)(F)F)cc4)c4c(F)cccc34)cc2=O)n1` [Compound 134, 4-(7-fluoro-1-(4-(trifluoromethyl)phenyl)-1H-indazol-3-yl)-1-((2-(2-methoxyethoxy)pyrimidin-4-yl)methyl)pyridin-2(1H)-one], the IC50 in test [1] is not above 1 µM; in test [2], not above 0.1 µM.

In the case of `CNc1nccc(Cn2ccc(-n3nc(-c4ccc(C(F)(F)F)cc4)c4c(F)cccc43)cc2=O)n1` [Compound 135, 4-(4-fluoro-3-(4-(trifluoromethyl)phenyl)-1H-indazol-1-yl)-1-((2-(methylamino)pyrimidin-4-yl)methyl)pyridin-2(1H)-one], the 50% inhibitory concentration (IC50) in test [1] is not above 1 µM; in test [2] it was not above 0.1 µM.

Regarding `O=c1cc(-n2nc(-c3ccc(C(F)(F)F)cc3)c3c(F)cccc32)ccn1Cc1ccnc(OCCO)n1` [Compound 136, 4-(4-fluoro-3-(4-(trifluoromethyl)phenyl)-1H-indazol-1-yl)-1-((2-(2-hydroxyethoxy)pyrimidin-4-yl)methyl)pyridin-2(1H)-one], the figures for the IC50 in test [1] and in test [2] were not above 1 µM and not above 0.1 µM, respectively.

On to `COCCOc1nccc(Cn2ccc(-n3nc(-c4ccc(C(F)(F)F)cc4)c4c(F)cccc43)cc2=O)n1` [Compound 137, 4-(4-fluoro-3-(4-(trifluoromethyl)phenyl)-1H-indazol-1-yl)-1-((2-(2-methoxyethoxy)pyrimidin-4-yl)methyl)pyridin-2(1H)-one], for which the IC50 in test [1] is not above 1 µM; in test [2], not above 0.1 µM.
